Assay [1] addresses T1, Bcl-2-related protein A1 (Mus musculus, UniProt Q07440).
T1 sequence (Q07440 whole entry): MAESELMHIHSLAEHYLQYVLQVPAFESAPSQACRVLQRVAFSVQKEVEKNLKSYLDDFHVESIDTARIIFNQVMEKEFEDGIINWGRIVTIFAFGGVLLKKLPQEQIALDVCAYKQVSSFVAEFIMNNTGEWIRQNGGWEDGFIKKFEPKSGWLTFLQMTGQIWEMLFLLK
Briefly: Bfl-1 binding inhibitors, SAR follow-up, biochemical, fluorescence polarization (AID 1070). (Fluorescence polarisation rises when a labelled molecule tumbles more slowly, as on binding a larger partner.)

Assay [2] deals with Glyceraldehyde-3-phosphate dehydrogenase (Homo sapiens, UniProt P04406).
Sequence of Glyceraldehyde-3-phosphate dehydrogenase (P04406 whole entry): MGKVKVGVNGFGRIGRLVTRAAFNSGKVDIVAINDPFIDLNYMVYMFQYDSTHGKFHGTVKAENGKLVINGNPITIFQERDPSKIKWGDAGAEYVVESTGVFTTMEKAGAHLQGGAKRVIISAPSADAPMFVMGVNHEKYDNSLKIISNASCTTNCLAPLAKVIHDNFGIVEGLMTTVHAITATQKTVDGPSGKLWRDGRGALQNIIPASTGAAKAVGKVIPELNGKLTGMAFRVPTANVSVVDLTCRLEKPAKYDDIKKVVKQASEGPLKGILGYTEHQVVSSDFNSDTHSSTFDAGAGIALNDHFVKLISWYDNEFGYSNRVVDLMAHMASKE
Assay [3] has as its target T1, Bcl-2-related protein A1. Put plainly: small-molecule antagonists of Bfl-1/BH3 interaction – biochemical, TR-FRET, mouse Bfl-1, confirmation (AID 621).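 Further: TR-FRET binding of GST-Bfl-1 to FITC-labelled Bid peptide via terbium antibody.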
The target of assay [4] is T1, Bcl-2-related protein A1. Briefly: displacement of Bid BH3 peptide from Bfl-1 – biochemical, fluorescence polarization, FITC-Bid, mouse, primary screen (AID 432).
A short description of assay [5]: viability loss in HEK293 cells – cell-based, plate reader, cherry-picked samples, cytotoxicity control, dose response (AID 743446). Type of assay: functional.
A short description of assay [6]: IGROV1 cell killing – plate reader, dry powder samples, PAX8 inhibitor project, dose response (AID 743043). Type of assay: functional, cell-based. Particulars: IGROV-1.
A short description of assay [7]: toxicity toward immortalized ovarian surface epithelium – cell-based, plate reader, dry powder samples, cytotoxicity control for PAX8 inhibitor project, dose response (AID 743045). Type of assay: functional.
The nature of assay [8]: Dd2 malaria parasite growth inhibition potency – SYBR Green, dry powder samples, dose response (AID 1159566).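 Further: potency for growth inhibition with lower SYBR green DNA signal.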 Type of assay: functional, cell-based.
Assay [9] can be described thus: toxicity toward HepG2 liver cells – cell-based, plate reader, cherry-pick, antagonist series, cytotoxicity control, dose response (AID 743416). Type of assay: functional.
Another assay has as its target Paired box protein Pax-8 (Homo sapiens, UniProt Q06710). Briefly: PAX8 transcriptional activity inhibition in RMG-I – RMG-I cells, luciferase, cherry-pick, dose response (AID 687027).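 Further: luciferase reporter driven by Pax8 target thyroperoxidase promoter measured by SteadyGlo luminescence.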 Type of assay: functional, cell-based.
Assay [10] in a line: blockers of bursicon-stimulated LGR2 cAMP reporter – cell-based, HEK293, CRE-luciferase reporter, cherry pick, set 2, dose response (AID 743343).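 Further: transfected cells were stimulated with diluted bursicon conditioned medium after compound addition.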 Type of assay: functional. For orientation: In a reporter assay the amount or activity of a reporter protein is the signal.
A short description of assay [11]: toxicity to human HepG2 hepatoma cells – cell-based, plate reader, dry powder samples, cytotoxicity control, dose response (AID 1159569).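 Further: inhibitor potency with signal falling toward the positive control level.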 Type of assay: functional.
Assay [12] is described as follows: Dd2 parasite growth inhibition in erythrocytes – SYBR Green, dry powder samples, set 9, dose response (AID 1159568). Type of assay: functional, cell-based.
The nature of assay [13]: OVCAR8 cell viability loss – plate reader, dry powder samples, PAX8 project, dose response (AID 743197). Type of assay: functional, cell-based. The following applies: OVCAR-8.
Assay [14] can be described thus: growth inhibition of yeast DHODH-expressing 3D7 parasites – SYBR Green, dry powder samples, dose response (AID 1159570).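 Further: parasite growth measured after 72 hours of compound exposure.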 Type of assay: functional, cell-based.
The nature of assay [15]: A2780 cell killing – plate reader, dry powder samples, cytotoxicity control, dose response (AID 743046). Type of assay: functional, cell-based.
Assay [16] can be described thus: P. falciparum Dd2 growth inhibitors, dose response, SYBR Green, cherry-picked samples (AID 1159567). Type of assay: functional, cell-based.
The nature of assay [17]: A549 cell cytotoxicity, dose response, cytotoxicity control, plate reader, cherry-pick, antagonist series (AID 743412). Type of assay: functional, cell-based.
The nature of assay [18]: growth inhibition of PfATP4-mutant resistant parasites – NITD609-resistant line, SYBR Green, dry powder, dose response (AID 1159571).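 Further: parasites synchronized at ring stage by sorbitol before testing.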 Type of assay: functional, cell-based.
Assay [19] is described as follows: OVCAR-3 cell viability loss – plate reader, dry powder samples, PAX8 inhibitor project, dose response (AID 743044). Type of assay: functional, cell-based.
Assay [20] can be described thus: blockade of melanocortin 4 receptor signaling – cell-based, plate reader, cherry pick, counter-screen for LGR2 antagonist project, dose response (AID 743444).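 Further: transfected HEK 293 cells stimulated with alpha-MSH peptide; potency of inhibitors of the alpha-MSH evoked signal.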 Type of assay: functional. In general terms: Counterscreens check selectivity or assay interference.
Assay [21] in a line: viability loss in MITF-independent A375 cells – cell-based, CellTiter-Glo luminescence, dry powder, set 6, counter-screen for MITF inhibitor project, dose response (AID 624488). Type of assay: functional. The following applies: A-375.
The nature of assay [22]: cytotoxicity in melanoma parental cells – cell-based, CellTiter-Glo, dry powder, set 6, MITF inhibitor project, dose response (AID 624429). Type of assay: functional. Particulars: SK-MEL-5.
A short description of assay [23]: viability loss in MITF-independent A375 cells – cell-based, CellTiter-Glo luminescence, dry powder, set 2, counter-screen for MITF inhibitor project, dose response (AID 624489).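 Further: actives are compounds lowering A375 viability meaning general cytotoxicity.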 Type of assay: functional. The following applies: A-375.
Assay [24] is described as follows: cytotoxicity in MITF-independent A375 cells – cell-based, CellTiter-Glo luminescence, dry powder, set 4, counter-screen for MITF inhibitor project, dose response (AID 624364).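 Further: A375 melanoma cells are MITF independent so this is a counter screen.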 Type of assay: functional. The following applies: A-375.
Assay [25] in a line: growth inhibition of SK-MEL-5 melanoma cells – cell-based, CellTiter-Glo luminescence, dry powder, set 8, orthogonal assay for MITF inhibitor project, dose response (AID 651586). Type of assay: functional.
Assay [26] in a line: viability loss in MITF-independent A375 cells – cell-based, CellTiter-Glo luminescence, dry powder, set 7, counter-screen for MITF inhibitor project, dose response (AID 624490). Type of assay: functional. The following applies: A-375.
Assay [27] is described as follows: cytotoxicity in MITF-independent A375 cells – cell-based, CellTiter-Glo luminescence, dry powder, set 9, counter-screen for MITF modulator project, dose response (AID 651591). Type of assay: functional. The following applies: A-375.
Assay [28] is described as follows: MITF Orthogonal Assay: MALME3 CTG Assay Measured in Cell-Based System Using Plate Reader - 2084-04_Inhibitor_Dose_DryPowder_Activity_Set6. Type of assay: functional. The following applies: MALME-3.
Assay [29] in a line: MITF Orthogonal Assay: SK-MEL-5 CTG Assay Measured in Cell-Based System Using Plate Reader - 2084-02_Inhibitor_Dose_DryPowder_Activity_Set5. Type of assay: functional.
A short description of assay [30]: MITF Measured in Cell-Based System Using Plate Reader - 2084-01_Inhibitor_Dose_DryPowder_Activity_Set7. Type of assay: functional.
The nature of assay [31]: growth inhibition of MALME3 cells – cell-based, CellTiter-Glo luminescence, dry powder, set 5, orthogonal assay for MITF inhibitor project, dose response (AID 651584). Type of assay: functional. The following applies: MALME-3.
A short description of assay [32]: MITF Measured in Cell-Based System Using Plate Reader - 2084-01_Inhibitor_Dose_DryPowder_Activity_Set6. Type of assay: functional.
Assay [33] is described as follows: inhibitors of TRPM1-promoter reporter in SK-MEL-5 – cell-based, luciferase, dry powder, set 9, MITF inhibitor project, dose response (AID 651588). Type of assay: functional.
Assay [34] deals with T2, NADPH oxidase 1 (Homo sapiens, UniProt Q9Y5S8).
T2 sequence (Q9Y5S8 whole entry): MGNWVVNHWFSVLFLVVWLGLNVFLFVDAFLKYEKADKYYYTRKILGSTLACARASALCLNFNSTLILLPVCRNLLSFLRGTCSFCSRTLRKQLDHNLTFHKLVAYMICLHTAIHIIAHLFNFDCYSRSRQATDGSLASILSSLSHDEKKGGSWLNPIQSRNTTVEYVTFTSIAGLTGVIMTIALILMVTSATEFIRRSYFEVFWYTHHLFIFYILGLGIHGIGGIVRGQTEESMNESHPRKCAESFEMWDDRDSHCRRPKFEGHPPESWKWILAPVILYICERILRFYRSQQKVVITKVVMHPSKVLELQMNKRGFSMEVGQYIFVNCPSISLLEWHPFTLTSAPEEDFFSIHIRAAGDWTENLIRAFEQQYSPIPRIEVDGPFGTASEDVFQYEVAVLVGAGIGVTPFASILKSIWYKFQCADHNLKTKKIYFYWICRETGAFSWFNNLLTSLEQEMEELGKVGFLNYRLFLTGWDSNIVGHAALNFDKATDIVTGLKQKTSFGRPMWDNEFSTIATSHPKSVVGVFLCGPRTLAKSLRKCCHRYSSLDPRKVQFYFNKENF
Put plainly: Late stage results from the probe development effort to identify inhibitors of NOX1: HEK/293 IC50. [Related pubchem assays: 1796 (Summary AID (NOX1)), 2752 (Primary screen (NOX1 inhibitors, synthesized analogs set 2)), 2664 (Primary screen (NOX1 inhibitors, synthesized analogs)), 1792 (Primary Screen (NOX1)), 2545 (Confirmation screen (NOX1 …. Type of assay: functional.

For assay [35], the target named is T2, NADPH oxidase 1. Briefly: potency of NOX1 inhibition in cells – cell-based, luminescence, cherry picks 2, dose response (AID 434997). Type of assay: functional.
In the next assay the test system is SN12K1. Put plainly: cells. Type of assay: functional. Particulars: Homo sapiens.
The test system of the next assay is P388/ADR. Briefly: cells. Type of assay: functional. The following applies: Mus musculus.
Assay [36] can be described thus: HCT116 cell viability decrease, GSK3B pretreatment – CellTiter-Glo, IC50, dose response (AID 1117339). Type of assay: functional. Particulars: HCT-116.
Assay [37] is described as follows: RKO cell viability reduction, dose response, CellTiter-Glo luminescence (AID 1117322). Type of assay: functional.
A short description of assay [38]: microbe, parasite or virus in culture. The following applies: Mycobacterium tuberculosis. Type of assay: functional.
Assay [39] in a line: rise of 4N DNA cells, HeLa – IC50, dose response (AID 1117351). Type of assay: functional, cell-based.
For the next assay, the system named is P388. Put plainly: cells. Type of assay: functional. The following applies: Mus musculus.
The nature of assay [40]: rise of 2N DNA cells, HeLa – IC50, dose response (AID 1117349). Type of assay: functional, cell-based.
A short description of assay [41]: cytotoxicity toward HT-29 cells – cell-based, CellTiter-Glo luminescence, IC50, dose response (AID 1117330). Type of assay: functional.
The nature of assay [42]: IC50 of insulin release inhibition, rat insulinoma INS-1E line, 5 mM glucose, cell-based (AID 1117331). Type of assay: functional.

Where “and” joins values, the source holds several entries; their conditions need not be identical. Equal values may be shown once. Calls of active or inactive are those of the source.

Six compounds from ChEMBL document CHEMBL1201862, “PubChem BioAssay data set” (2004) can be followed below.

A word on the IC50: it is the midpoint of a concentration-inhibition curve. What is called AC50 is the concentration at which the activity in the assay is half-maximal. The term GI50 denotes the concentration at which growth is held to half of that of the control.

Sequence of Paired box protein Pax-8 (Q06710 whole entry): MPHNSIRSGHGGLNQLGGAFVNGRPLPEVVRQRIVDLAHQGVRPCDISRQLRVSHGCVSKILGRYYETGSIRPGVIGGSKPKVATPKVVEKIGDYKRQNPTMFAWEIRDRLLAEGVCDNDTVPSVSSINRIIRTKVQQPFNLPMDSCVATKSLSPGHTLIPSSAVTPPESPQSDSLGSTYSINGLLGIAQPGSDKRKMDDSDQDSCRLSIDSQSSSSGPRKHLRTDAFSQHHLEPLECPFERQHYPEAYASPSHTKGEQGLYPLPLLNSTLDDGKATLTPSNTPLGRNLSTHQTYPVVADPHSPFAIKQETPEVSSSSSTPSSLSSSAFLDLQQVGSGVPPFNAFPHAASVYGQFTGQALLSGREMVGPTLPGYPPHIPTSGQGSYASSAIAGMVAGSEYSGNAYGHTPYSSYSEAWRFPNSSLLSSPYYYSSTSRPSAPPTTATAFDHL

On to `COc1ccccc1C(=O)C1Nc2ccccc2-c2nnc(SC)nc2O1` (stereo unspecified), for which the IC50 at Bcl-2-related protein A1 [1] is > 100 µM (not active); in assay [2] it was > 100 µM (not active); on Bcl-2-related protein A1 [3], > 100 µM (not active) and 4.6 µM (active); on Bcl-2-related protein A1 [4], 4.79 µM (active).
Turning to `O=C(C1CC1)N1C[C@@H]2N[C@H](C1)[C@@H]2c1ccc(-c2ccccc2F)cc1`, the AC50 was 4.12 µM (active) in assay [5]; 4.13 µM (active) in [6]; 3.24 µM (active) in assay [7]; 0.145 µM (active) in assay [8]; 4.58 µM (active) in assay [9]; 1.2 µM (active) on Paired box protein Pax-8. Besides, the AC50 is 2.25 µM (active) in [10]; 32.3 µM (active) in assay [11]; 0.83 µM (active) in [12]; 2.72 µM (active) in [13]; 0.139 µM (active) in assay [14]; 5.34 µM (active) in assay [15]. In addition, the AC50 in [16] is 0.584 µM (active); in [17], 1.84 µM (active); in assay [18], 0.225 µM (active); in [19], 5.96 µM (active); in assay [20], 2.57 µM (active).
Take `NC1=C(NC(=O)c2ccccc2)C(=O)c2ccccc2C1=O`: the AC50 in assay [21] is 60.3 µM (active); in assay [22], 9.56 µM (active); in assay [23] it was 59.8 µM (active); in assay [24], > 70 µM (inactive); in assay [25] it was 10.1 µM (active); in [26], > 70 µM (inactive). The AC50 was > 70 µM (inactive) in assay [27]; 14.3 µM (active) in assay [28]; 6.7 µM (active) in assay [29]; 7.02 µM (active) in assay [30]; 14.3 µM (active) in [31]; 4.07 µM (active) in assay [32]. In [33], the AC50 is 18.6 µM (active).
Take `COc1cc(-c2nc(-c3ccccc3)c(-c3ccccc3)[nH]2)ccc1O`: the IC50 is 1.81 µM (active) on NADPH oxidase 1 [34] and 0.37 µM (active) on NADPH oxidase 1 [35].
`CO[C@@]12[C@H](COC(N)=O)C3=C(C(=O)C(C)=C(N)C3=O)N1C[C@@H]1N[C@@H]12` [MITOMYCIN]: the figures for the GI50 in the assay on SN12K1, with P388/ADR and with P388 were 0.959 µM (active), 1.39 µM (inactive) and 0.181 µM (active), respectively. In addition, the IC50 in assay [36] is > 20 µM (inactive); in [37], 0.995 µM (active); in assay [39], > 10 µM (inactive); in [40], 0.0133 µM (active); in assay [41] it was 2.57 µM (active). The CC50 in assay [38] is > 40 µM (active).
For the compound `COCCCOc1ccnc(C[S+]([O-])c2nc3ccccc3[nH]2)c1C` (stereo unspecified) [RABEPRAZOLE SODIUM], in assay [42], the IC50 was > 33.3 µM (inactive).
